From PubChem BioAssay AID330 (DTP/NCI, 2004)
Where “and” joins values, the source holds several entries; their conditions need not be identical. Equal values may be shown once. Toxic doses and inconclusive results are not listed. How the source made its calls: active means survival T/C of 150% or more; inactive means T/C below 125% in these data. Peptide text beside a SMILES is read from it.

Test system: P388 leukemia ip, CD2F1 mice, survival T/C
Assay: NCI In Vivo Anticancer Drug Screen. Data for tumor model P388 Leukemia (intraperitoneal) in CD2F1 (CDF1) mice
Settings: endpoint: median survival time, higher = longer survival
How it was run: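 Mice carrying the transplanted tumor received test compound or vehicle. Survival was recorded in each group, and the value is the treated-group measurement divided by that of the vehicle-treated control group.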

[1] = dose: 50.0 mg/kg/injection, schedule: Q01DX009 (ip), vehicle: Klucel (hydroxypropylcellulose) (HPC)
[2] = dose: 100.0 mg/kg/injection, schedule: Q01DX009 (ip), vehicle: Klucel (hydroxypropylcellulose) (HPC)
[3] = dose: 200.0 mg/kg/injection, schedule: Q01DX009 (ip), vehicle: Klucel (hydroxypropylcellulose) (HPC)
[4] = dose: 100.0 mg/kg/injection, schedule: Q04DX002 (ip), vehicle: saline with Tween-80
[5] = dose: 200.0 mg/kg/injection, schedule: Q04DX002 (ip), vehicle: saline with Tween-80
[6] = dose: 400.0 mg/kg/injection, schedule: Q04DX002 (ip), vehicle: saline with Tween-80
[7] = dose: 50.0 mg/kg/injection, schedule: Q01DX005 (ip), vehicle: saline with Tween-80
[8] = dose: 100.0 mg/kg/injection, schedule: Q01DX005 (ip), vehicle: saline with Tween-80
[9] = dose: 200.0 mg/kg/injection, schedule: Q01DX005 (ip), vehicle: saline with Tween-80
[10] = dose: 60.0 mg/kg/injection, schedule: Q01DX005 (ip), vehicle: saline with Tween-80
[11] = dose: 120.0 mg/kg/injection, schedule: Q01DX005 (ip), vehicle: saline with Tween-80
[12] = dose: 240.0 mg/kg/injection, schedule: Q01DX005 (ip), vehicle: saline with Tween-80
[13] = dose: 12.5 mg/kg/injection, schedule: Q01DX009 (ip), vehicle: saline with Tween-80
[14] = dose: 25.0 mg/kg/injection, schedule: Q01DX009 (ip), vehicle: saline with Tween-80
[15] = dose: 50.0 mg/kg/injection, schedule: Q01DX009 (ip), vehicle: saline with Tween-80
[16] = dose: 100.0 mg/kg/injection, schedule: Q01DX009 (ip), vehicle: saline with Tween-80
[17] = dose: 50.0 mg/kg/injection, schedule: Q01DX009 (ip), vehicle: saline
[18] = dose: 100.0 mg/kg/injection, schedule: Q01DX009 (ip), vehicle: saline
[19] = dose: 200.0 mg/kg/injection, schedule: Q01DX009 (ip), vehicle: saline

Measured: T/C

Cc1ccc(C(F)(F)F)cc1N(O)C(C)(C)C
inactive: dose: 50.0 mg/kg/injection, schedule: Q04DX003 (ip), vehicle: saline with Tween-80 95 % of control | dose: 100.0 mg/kg/injection, schedule: Q04DX003 (ip), vehicle: saline with Tween-80 101 % of control | dose: 200.0 mg/kg/injection, schedule: Q04DX003 (ip), vehicle: saline with Tween-80 118 % of control

CC(=O)NC(Cc1cc(I)c(OC(C)=O)c(I)c1)C(C)=O (configuration not stated)
inactive: [1] 101 % of control | [2] 100 % of control | [3] 98 % of control

CCN(CC(O)CN(CC1CO1)c1ccccc1)c1ccccc1 (configuration not stated)
inactive: [4] 100 % of control | [5] 94 % of control | [6] 101 % of control

COc1c(C)c2c(c(C)c1Cl)Oc1c(C)c(O)c(Cl)c(C)c1C(=O)O2
inactive: dose: 1.12 mg/kg/injection, schedule: Q01DX009 (ip), vehicle: Klucel (hydroxypropylcellulose) (HPC) 112 % of control | dose: 2.25 mg/kg/injection, schedule: Q01DX009 (ip), vehicle: Klucel (hydroxypropylcellulose) (HPC) 105 % of control | dose: 4.5 mg/kg/injection, schedule: Q01DX009 (ip), vehicle: Klucel (hydroxypropylcellulose) (HPC) 108 % of control | dose: 9.0 mg/kg/injection, schedule: Q01DX009 (ip), vehicle: Klucel (hydroxypropylcellulose) (HPC) 96 % of control | dose: 18.0 mg/kg/injection, schedule: Q01DX009 (ip), vehicle: Klucel (hydroxypropylcellulose) (HPC) 102 % of control

CC1(C)CC2C[C@H]3CC[C@@H]4O[C@]34C2[C@H]1OC(=O)/C=C/c1ccccc1 (some centres not stated)
inactive: dose: 74.5 mg/kg/injection, schedule: Q01DX001 (ip), vehicle: saline with Tween-80 100 % of control | dose: 149.0 mg/kg/injection, schedule: Q01DX001 (ip), vehicle: saline with Tween-80 99 % of control | dose: 298.0 mg/kg/injection, schedule: Q01DX001 (ip), vehicle: saline with Tween-80 99 % of control

Fc1cccc(N=Nc2c(-c3ccccc3)nn(C(=S)S)c2-c2ccccc2)c1
inactive: [7] 104 % of control | [8] 101 % of control | [9] 106 % of control

Cc1c(/C=C/C(=O)O)no[n+]1[O-]
inactive: [7] 102 % of control | [8] 98 % of control | [9] 100 % of control

Nc1nc(N)c2ncn(-c3ccc(Br)cc3)c2n1
inactive: [7] 95 % of control | [8] 92 % of control | [9] 91 % of control

CC(=O)c1ccn[nH]1
inactive: [7] 98 % of control | [8] 99 % of control | [9] 110 % of control

CC(C)C1SCC(=O)N1N1C(=O)CSC1C(C)C (configuration not stated)
inactive: [7] 94 % of control | [8] 93 % of control | [9] 98 % of control

CN1C(=O)CC(NC(=O)CNC(=O)c2ccccc2)C1=O (configuration not stated)
inactive: [10] 97 % of control | [11] 94 % of control | [12] 90 % of control

c1ccc2cc3c4c(ccc3cc2c1)CCCCCC4
inactive: [13] 86 % of control | [14] 112 % of control | [15] 105 % of control

NC(=O)C1CCCN1C(=O)/C=C\c1ccccc1 (configuration not stated)
inactive: [10] 109 % of control | [11] 112 % of control | [12] 101 % of control

CC(=O)/C(C(=N)C(=O)c1ccccc1)=C(\C)O
inactive: [10] 96 % of control | [11] 98 % of control | [12] 99 % of control

COC(=O)c1ccccc1NC(=O)Nc1ncccn1
inactive: [1] 100 % of control | [2] 100 % of control | [3] 96 % of control

O=C1Cc2ccccc2N1C1c2ccccc2C=Cc2ccccc21
inactive: [15] 95 % of control | [16] 86 % of control | dose: 200.0 mg/kg/injection, schedule: Q01DX009 (ip), vehicle: saline with Tween-80 89 % of control

CC(=O)OCC#CCN1CCCCC1
inactive: dose: 6.25 mg/kg/injection, schedule: Q01DX005 (ip), vehicle: saline 102 % of control | dose: 12.5 mg/kg/injection, schedule: Q01DX005 (ip), vehicle: saline 104 % of control | dose: 25.0 mg/kg/injection, schedule: Q01DX005 (ip), vehicle: saline 101 % of control

O=C1NC(=O)C2C1C1C(=O)NC(=O)C21 (configuration not stated)
inactive: [14] 94 % of control | [15] 94 % of control | [16] 103 % of control

Oc1c(Cl)c(Cl)c(O)c(Cl)c1Cl
inactive: dose: 6.25 mg/kg/injection, schedule: Q04DX003 (ip), vehicle: Klucel (hydroxypropylcellulose) (HPC) 98 % of control | dose: 12.5 mg/kg/injection, schedule: Q04DX003 (ip), vehicle: Klucel (hydroxypropylcellulose) (HPC) 99 % of control | dose: 25.0 mg/kg/injection, schedule: Q04DX003 (ip), vehicle: Klucel (hydroxypropylcellulose) (HPC) 98 % of control

CN1CCC(O)CC1C(=O)O (configuration not stated)
inactive: [17] 98 % of control | [18] 104 % of control | [19] 105 % of control

CCCCCCCCCCCCCCCC[N+]1([O-])CCOCC1
inactive: [13] 105 % of control | [14] 102 % of control | [15] 102 % of control

CNC(=O)OCCC(OC(=O)NC)C1CCC2C3CC=C4CC(OC(=O)c5ccccc5)CCC4(C)C3CCC12C (configuration not stated)
inactive: dose: 50.0 mg/kg/injection, schedule: Q01DX005 (ip), vehicle: Klucel (hydroxypropylcellulose) (HPC) 103 % of control | dose: 100.0 mg/kg/injection, schedule: Q01DX005 (ip), vehicle: Klucel (hydroxypropylcellulose) (HPC) 99 % of control | dose: 200.0 mg/kg/injection, schedule: Q01DX005 (ip), vehicle: Klucel (hydroxypropylcellulose) (HPC) 92 % of control

CC1=NN(C(=O)CC(=O)Nc2ccc(C(=O)O)cc2)C(=O)C1N=Nc1ccc(I)cc1 (configuration not stated)
inactive: [4] 96 % of control | [5] 98 % of control | [6] 120 % of control

C=CC1CCC[S+]1CC(=O)OCC (configuration not stated)
inactive: dose: 12.5 mg/kg/injection, schedule: Q01DX005 (ip), vehicle: saline with Tween-80 100 % of control | dose: 25.0 mg/kg/injection, schedule: Q01DX005 (ip), vehicle: saline with Tween-80 105 % of control | [7] 102 % of control and 107 % of control

Clc1nc2ccccc2[nH]1
inactive: dose: 25.0 mg/kg/injection, schedule: Q01DX009 (ip), vehicle: saline 101 % of control | [17] 99 % of control | [18] 95 % of control | [19] 98 % of control

CC(O)C(N)C(=O)NC(Cc1ccccc1)C(N)=O (stereo not drawn) (H-Thr-Phe-NH2; configuration not given here)
inactive: [7] 101 % of control | [8] 100 % of control | [9] 103 % of control

Nc1ccc(S(=O)(=O)Nc2ccc3oc(=O)[nH]c3c2)cc1
inactive: dose: 50.0 mg/kg/injection, schedule: Q04DX002 (ip), vehicle: Klucel (hydroxypropylcellulose) (HPC) 101 % of control | dose: 100.0 mg/kg/injection, schedule: Q04DX002 (ip), vehicle: Klucel (hydroxypropylcellulose) (HPC) 104 % of control | dose: 200.0 mg/kg/injection, schedule: Q04DX002 (ip), vehicle: Klucel (hydroxypropylcellulose) (HPC) 104 % of control

COc1cc2c[n+](C)c(-c3ccc(Cl)c(Cl)c3)c(OC)c2cc1OC
inactive: dose: 12.5 mg/kg/injection, schedule: Q04DX003 (ip), vehicle: saline 101 % of control | dose: 25.0 mg/kg/injection, schedule: Q04DX003 (ip), vehicle: saline 100 % of control | dose: 50.0 mg/kg/injection, schedule: Q04DX003 (ip), vehicle: saline 100 % of control

CCCCCCC1NC(CCCCC)N2C(CCCCC)N12 (configuration not stated)
inactive: dose: 50.0 mg/kg/injection, schedule: Q01DX001 (ip), vehicle: Klucel (hydroxypropylcellulose) (HPC) 101 % of control | dose: 100.0 mg/kg/injection, schedule: Q01DX001 (ip), vehicle: Klucel (hydroxypropylcellulose) (HPC) 103 % of control | dose: 200.0 mg/kg/injection, schedule: Q01DX001 (ip), vehicle: Klucel (hydroxypropylcellulose) (HPC) 95 % of control

CC[N+](CC)=c1ccc2nc3c(cc(Nc4ccccc4)c4ccccc43)oc-2c1.[Cl][Zn][Cl]
inactive: dose: 60.0 mg/kg/injection, schedule: Q01DX005 (ip), vehicle: Klucel (hydroxypropylcellulose) (HPC) 98 % of control | dose: 120.0 mg/kg/injection, schedule: Q01DX005 (ip), vehicle: Klucel (hydroxypropylcellulose) (HPC) 107 % of control
